Here are results for one compound from patent US8552052B2, “Use of diindolylmethane-related indoles for the treatment and prevention of respiratory syncytial virus associated conditions” (BioResponse, L.L.C., priority 2004, dated 2013).

Structures are written as SMILES. Entries after “also recorded” stand apart in the source; their conditions may differ.

Assay [1] has as its system Recombinant RSV virus producing green fluorescent protein (gRSV). The assay can be described thus: Intracellular RSV growth, real-time fluorescence of GFP-producing RSV (gRSV) in A549 cells. The class given is cell-based, Respiratory Syncytial Virus. The conditions noted are these: cultured A549 cells; beginning 12 hours after addition of nM DIM (70, 210, 700 nM); FIG. 3. An excerpt:
Levels of Intracellular RSV Growth—A real-time fluorescence measurement of live infected cells was utilized to determine the intracellular levels of RSV. Quantitation of real-time RSV growth in live cells was accomplished using a strain of RSV virus which produces florescent protein. Recombinant RSV virus producing green fluorescent protein (GFP) (‘green RSV’, abbreviated as ‘gRSV’) was kindly provided by Dr. Mark Peeples (Columbus Children's Res. Inst., Ohio). A549 cell monolayers were infected with the gRSV in the presence of indicated concentrations of DIM, and were periodically observed by fluorescence microscopy. For quantification, the fluorescence was measured in a standard plate-reader.

Assay [2] deals with Mitogen Activated Protein Kinase (MAPK) cell signaling pathway. The conditions noted are these: cell culture; cited from earlier work.
A further assay deals with rainbow trout. The conditions noted are these: cited from earlier work.
The subject of assay [3] is RSV Long strain. The assay is described as follows: Pulmonary histopathology in RSV infected BALB/c mice. The assay is classed as in vivo. The conditions noted are these: DIM administered orally or parenterally. As for the experimental part:
(§1) The Following Experimental BALB/c Groups and Treatment Protocol Using DIM were Studied: • 1. RSV infected positive control group, infected with RSV and injected subcutaneously (SC) once daily with DMSO/Phosphate Buffered Saline (PBS) vehicle. • 2. RSV infected, Low dose Parenteral DIM group (15 mg/kg/day), injected SC once daily with DIM suspension • 3. RSV infected, High dose DIM Group (150 mg/kg/day), injected SC once daily with DIM suspension • 4. RSV infected, orally treated DIM group (250 mg/kg/day from absorption enhanced DIM [Example 6.1]), added to powdered feed • 5. Uninfected negative control group, nasally administered vehicle only, and injected subcutaneously (SC) once daily with DMSO/PBS vehicle
(§2) Mouse treatment, infection and harvest. […]
To determine viral titer, the lung was homogenized in DMEM supplemented with 2% FBS (2 ml DMEM per 100 mg tissue) in cold. […] Multiple, 4 μm thick sections were stained with haematoxylin & eosin (H&E) and scored for cellular inflammation under light microscopy by two independent researchers. Inflammatory infiltrates were scored by enumerating the layers of inflammatory cells surrounding the vessels and bronchioles. […] A total of about 20 spaces per lung were counted for each animal. […] The concentration of cysteinyl leukotrienes conjugates in the BALF was determined by an ELISA kit following the manufacturer's protocol (R&D Systems, Minneapolis, Minn.). […]

Assay [4] has as its system RSV Long strain. The assay is described as follows: Pulmonary viral assay (pfu in lung homogenate) in RSV infected BALB/c mice. The assay is classed as in vivo. As for the experimental part: as §1
Animals, cells, and viruses. Pathogen-free 8-10 week old female BALB/c mice, weighing between 16 and 20 g, were purchased from Charles River Laboratories. All mice were housed in cages covered with barrier filters and are fed mouse chow and water ad libitum. HeLa cells are maintained in Eagle's minimal essential medium supplemented with glutamine, gentamicin, penicillin G, and 10% fetal bovine serum.
RSV stock. RSV Long strain was grown on HEp-2 monolayers (American Type Culture Collection, Manassas, Va.). The extracellular media containing liberated progeny virus was collected at about 70 hr. The virus was purified and concentrated by precipitation with polyethylene glycol (MW 8,000) and sucrose gradient centrifugation. The final preparation had infectious titer in the range of 10^8-10^9 pfu/ml and was stored frozen at −80° C. in small portions. All infectious viral titers (plaque forming units [pfu]) were determined by agarose plaque assay on HEp-2 monolayers with neutral red staining using standard procedures. Another suitable strain is the A2 strain of RSV (American Type Culture Collection).
as §2
Pulmonary viral assay and clinical measurements. […] Respiratory rates (breaths per min) were determined by counting over a period of 2-3 mins. […]

In assay [5] the test system is Human Papilloma Virus (HPV) oncogene altered cervical cancer cell lines. The conditions noted are these: cited from earlier work.

For the compound `c1ccc2c(Cc3c[nH]c4ccccc34)c[nH]c2c1` [DIM, 3,3′-diindolylmethane], the “intracellular RSV activity (growth)” value in assay [1] was “reduced intracellular RSV growth; also recorded: significantly reduced”. In assay [2], the “MAPK cell signaling pathway activation” value is reported as “activate the Mitogen Activated Protein Kinase (MAPK) cell signaling pathway”. Also, the estrogenic activity result in the assay on rainbow trout is reported as “estrogenic”. Besides, the “severity in lung pathology” value in the assay on RSV Long strain [3] was “reduced severity in lung pathology”. Also, the “RSV growth in the lung / viral counts in lung tissue” value with RSV Long strain [4] (DIM administered orally or parenterally, BALB/c mice) was “inhibit RSV growth in the lung; also recorded: significant reduction in viral counts in lung tissue”. Also, the pulmonary viral count entry in the assay on RSV Long strain [4] (SC administered DIM, 10 days pi, vs vehicle treated, RSV-infected controls, FIG. 4) is “significantly reduced pulmonary viral count”. Besides, the “intrapulmonary replication of nasally administered RSV virus” value in the assay with RSV Long strain [4] (oral 250 mg/kg/day and SC 15 and 150 mg/kg/day, 6 days post infection (pi), vs vehicle treated RSV-infected controls, FIG. 4) is “significantly reduced the intrapulmonary replication”. Further, the induction of apoptosis result in assay [5] (HPV oncogene altered cervical cancer cell lines) is “specifically induce apoptosis”. In assay [5] (cell culture), the “induction of markers of apoptosis compared with I3C” value is reported as “more active than I3C”.
